What was measured:
[1] = tested on: opioid induced hyperalgesia; assay: Human subject with morphine-induced hyperalgesia switched to compound (Example 3); format: in vivo; details: morphine stopped, compound administered
[2] = tested on: nociceptive sensitization; assay: Subject with opioid-induced increased nociceptive sensitization switched to compound (Example 4); format: in vivo; details: subject switched from opioid to pharmaceutical composition of compound
Description: A subject is identified as having increased nociceptive sensitization due to being administered an opioid for pain relief. The subject is switched from the opioid to a pharmaceutical composition comprising Compound 140 or Compound 265. The subject's nociceptive sensitization is decreased while maintaining the pain relief.

[3] = tested on: mouse model of opioid induced hyperalgesia; details: in vivo, sc

| SMILES | opioid induced hyperalgesia in human subject after stopping morphine [1] | nociceptive sensitization after switch from opioid [2] | % non-responses to 10 applications of a 0.4 g von Frey filament (hyperalgesia induction) [3] |
| --- | --- | --- | --- |
| COc1ccsc1CNCC[C@@]1(c2ccccn2)CCOC2(CCCC2)C1 [Compound 140] | treated and reduced | decreased | – |
| COc1ccc2c3c1O[C@H]1C(=O)CC[C@@]4(O)[C@@H](C2)N(C)CC[C@]314 [Oxycodone] | – | – | decreased the % non-responses |

Source: patent US10588889B2 (priority 2015, dated 2020)
